Patent US20240217973A1, “IMIDAZOPYRIDINE COMPOUNDS AND USE THEREOF” (MEDSHINE DISCOVERY INC., priority 2021, published 2024)

What was measured:
[1] = Pharmacokinetic evaluation of compounds in rats; format: in vivo; settings: rat, plasma, SD rats
Description: Experimental purpose: To test the in vivo pharmacokinetic data of compounds in SD rats.
(§1) The compound was mixed with the solvent 5% DMSO/5% Solutol/90% H2O, vortexed and sonicated to prepare a 0.5 mg/mL clear solution. The rats were administered the candidate compound solution intravenously. Whole blood was collected for a certain period of time, and plasma was prepared. The drug concentration was analyzed by LC-MS/MS method, and pharmacokinetic parameters were calculated.
as §1, with “2” for “0.5”, “administered” for “administered the”, “solutions orally.” for “solution intravenously.”

[2] = Hepatocyte metabolic stability experiment (HMS), R; format: in vitro ADME; settings: rat, R hepatocytes, read-out: HMS CLint(liver)
Description: (§2) Experimental operations: 198 μL of hepatocyte suspension (0.51×10^6 cells/mL) was added to the preheated incubation plate, and 198 μL of culture medium without hepatocytes was added to T0-MC and T120-MC incubation plates for the culture medium control group, and all incubation plates were pre-incubated for 10 minutes in a 37° C. incubator. Then 2 μL of the working solution of the test and control compounds were added and mixed well, and the incubation plate was immediately put into the plate shaker in the incubator, the rotation speed was adjusted to about 650 rpm, and the timer and the reaction were started. 2 duplicate samples for each compound were prepared at each time point. Incubation conditions: 37° C., saturated humidity, and containing 5% CO2. In the test system, the final concentration of the test compound was 1 μM, the final concentration of the control compound was 3 μM, the final concentration of hepatocytes was 0.5×10^6 cells/mL, and the final concentration of the total organic solvent was 0.96%, of which the final concentration of DMSO was 0.1%. […] All samples were mixed and analyzed by LC-MS/MS method. […]

[3] = tested on: HPBMC cells; assay: HPBMC experiment: CD69 on anti-human IgM stimulated B cells, flow cytometry; format: cell-based; settings: B-cell, B cells isolated from PBMC, 48 hours
Description: • 1) Medium: RPMI Medium 1640+1% P/S+10% FBS • 2) MACS buffer: 2% FBS+1 mM EDTA in DPBS • 3) Staining buffer: DPBS+2% FBS • 1.2 Dilution of Compounds and Anti-Human IgM
The initial concentration of the compound to be tested was […], 3-fold dilution, 9 points, and it was added to a 96 well plate after dilution, 50 μL/ well.
The anti-human IgM was diluted according to Table 2 below, and added to the 96 well plate after dilution, 50 μL/well.
• 1) PBMC was removed from a liquid nitrogen tank, then resuscitated and thawed in a 37° C. water bath; • 2) Using a B cell olation kit, B cells were isolated from PBMC according to the instructions, and their viability and number were calculated using a cell counter.
Table 10 Number and viability of PBMC and B cells • 3) The cells were resuspended with 1640 culture medium to a final concentration of 1 M/mL. • 4) The B cells were spread at 0.1 M/ well (100 μL) into a 96-well flat-bottom plate already containing the compound and anti-IgM. • 5) The plate was incubated in a 37° C. CO2 incubator for 48 hours; […]

[4] = Hepatocyte metabolic stability experiment (HMS), C; format: in vitro ADME; settings: cynomolgus monkey, C hepatocytes, read-out: HMS CLint(liver)
Description: as §2

[5] = IV, 1.0 mg/kg (002), 0.85 mg/kg (003B)
[6] = PO, 9.2 mg/kg (002), 8.4 mg/kg (003B)

- AUC(0-inf) [1, 5]: 1.32 µM·h
- C0 [1, 5]: 3520 nM
- Vd [1, 5]: 0.7 L/kg
- clearance [1, 5]: 26 mL/min/kg
- half-life [1, 5]: 24 min
- AUC(0-inf) [1, 6]: 2.58 µM·h
- Cmax [1, 6]: 1800 nM
- Tmax [1, 6]: 22.8 min
- bioavailability [1, 6]: 18.1%
- half-life [1, 6]: 107 min
- CLint scaled at 1 μM [2]: 171 mL/min/kg
- IC50 [3]: 3.6 nM
- CLint scaled at 1 μM [4]: 203 mL/min/kg
SMILES: Nc1nccc2c1n(-c1ccc(Oc3ccccc3)cc1)c(=O)n2[C@@H]1CCCN(C(=O)/C=C/CF)C1 [Compound 002]
